Data as given in the supplement of paper PMC6045584.
± gives the standard deviation of the averaged measurements.

Assays:
SNX-5422 = compound: CC1(C)CC(=O)c2c(C(F)(F)F)nn(-c3ccc(C(N)=O)c(N[C@H]4CC[C@H](OC(=O)CN)CC4)c3)c2C1 [SNX-5422]; experiment: surviving fraction relative to DMSO-only wells; higher = less growth inhibition; settings: exposure time: 5 days
In short: (§1)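 Inhibitors were tested at 0.5, 1, 5, 10, 50, 100, 500 and 1000 nM, applied continuously for five days beginning 24 hours after log-phase tumour cells were seeded at 250–500 per well in 384-well plates. CellTiter-Glo luminescence served as the viability measure, expressed as surviving fraction against the median of DMSO-only wells. Each line, screened three times, was kept only with replicate Pearson r >0.7 and median Z' >0.3.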

[1] = compound: Cn1cc(C2=Nc3cc(NC(=O)C(N)C4CCCCC4)cc4c3C2=CNNC4=O)cn1; experiment: as above; settings: exposure time: 5 days
In short: as §1

Test System	surviving fraction (SNX-5422; 0.5 nM)	surviving fraction (SNX-5422; 1 nM)	surviving fraction (SNX-5422; 5 nM)	surviving fraction (SNX-5422; 10 nM)	surviving fraction (SNX-5422; 50 nM)	surviving fraction (SNX-5422; 100 nM)	surviving fraction (SNX-5422; 500 nM)	surviving fraction (SNX-5422; 1000 nM)	surviving fraction ([1]; 0.5 nM)	surviving fraction ([1]; 1 nM)	surviving fraction ([1]; 5 nM)	surviving fraction ([1]; 10 nM)	surviving fraction ([1]; 50 nM)	surviving fraction ([1]; 100 nM)	surviving fraction ([1]; 500 nM)	surviving fraction ([1]; 1000 nM)
A549 LUNG	1 ± 0.046	1.01 ± 0.053	1.01 ± 0.043	0.99 ± 0.045	0.895 ± 0.057	0.349 ± 0.046	0.0613 ± 0.0031	0.058 ± 0.0095	1.04 ± 0.034	1.08 ± 0.082	1.03 ± 0.021	1.03 ± 0.018	1.08 ± 0.048	1.02 ± 0.033	1.06 ± 0.029	1.01 ± 0.02
MDAMB157 BREAST	0.999 ± 0.11	0.958 ± 0.067	0.941 ± 0.059	1.11 ± 0.043	0.575 ± 0.12	0.266 ± 0.06	0.258 ± 0.043	0.191 ± 0.01	0.982 ± 0.061	0.965 ± 0.13	1.02 ± 0.065	0.994 ± 0.12	1 ± 0.044	0.916 ± 0.1	0.425 ± 0.057	0.172 ± 0.043
SUM159 BREAST	1.11 ± 0.11	1.13 ± 0.098	1.16 ± 0.17	1.15 ± 0.17	0.6 ± 0.084	0.316 ± 0.015	0.064 ± 0.0036	0.0623 ± 0.0015	1.13 ± 0.14	1.16 ± 0.17	1.16 ± 0.19	1.12 ± 0.12	1.01 ± 0.066	1.1 ± 0.12	1.04 ± 0.012	0.862 ± 0.011
SUM149.B1*.S BREAST	1.06 ± 0.037	1.12 ± 0.032	1.09 ± 0.021	1.08 ± 0.037	0.385 ± 0.022	0.226 ± 0.017	0.0997 ± 0.0045	0.0978 ± 0.0067	1.045 ± 0.0088	1.1 ± 0.025	1.01 ± 0.057	1.04 ± 0.033	1.03 ± 0.062	0.954 ± 0.03	0.377 ± 0.0042	0.225 ± 0.024
SCC003 HEADNECK	1.16 ± 0.017	1.15 ± 0.12	1.16 ± 0.081	1.13 ± 0.054	0.608 ± 0.023	0.384 ± 0.091	0.0973 ± 0.004	0.0767 ± 0.0055	1.03 ± 0.12	1.05 ± 0.21	1.1 ± 0.083	1.12 ± 0.041	1.1 ± 0.14	1.1 ± 0.095	0.902 ± 0.11	0.86 ± 0.12
143B BONE	1 ± 0.056	0.985 ± 0.0099	1.02 ± 0.037	0.996 ± 0.0057	0.365 ± 0.016	0.149 ± 0.0028	0.087 ± 0.0071	0.091 ± 0.011	0.981 ± 0.052	1.01 ± 0.029	0.992 ± 0.033	1.0045 ± 0.00071	0.96 ± 0.052	1 ± 0.035	0.303 ± 0.0042	0.036 ± 0.0014
CME SYNOVIAL	1.05 ± 0.06	1.21 ± 0.062	1.23 ± 0.074	1.35 ± 0.077	1.01 ± 0.18	0.276 ± 0.0067	0.287 ± 0.011	0.365 ± 0.034	1.243 ± 0.0098	1.27 ± 0.03	1.3 ± 0.06	1.23 ± 0.059	1.13 ± 0.049	1.02 ± 0.065	0.733 ± 0.036	0.414 ± 0.0087
SUM149 BREAST	0.982 ± 0.046	0.986 ± 0.14	1.09 ± 0.1	0.951 ± 0.097	0.0727 ± 0.0076	0.082 ± 0.0095	0.0233 ± 0.0021	0.0287 ± 0.0015	0.875 ± 0.087	0.854 ± 0.13	0.874 ± 0.14	0.911 ± 0.1	0.481 ± 0.067	0.238 ± 0.047	0.0587 ± 0.0096	0.063 ± 0.0062
SCC90 HEADNECK	1.08 ± 0.089	1.08 ± 0.071	1.12 ± 0.1	1.16 ± 0.077	0.225 ± 0.08	0.155 ± 0.047	0.0307 ± 0.0061	0.0383 ± 0.0015	0.92 ± 0.099	0.952 ± 0.11	0.943 ± 0.12	0.991 ± 0.014	0.891 ± 0.057	0.702 ± 0.029	0.15 ± 0.0075	0.068 ± 0.0076
G292 BONE	1.01 ± 0.014	0.952 ± 0.055	1.02 ± 0.033	0.994 ± 0.034	0.366 ± 0.017	0.287 ± 0.028	0.081 ± 0.0089	0.0853 ± 0.012	1.03 ± 0.019	0.968 ± 0.051	1.02 ± 0.077	1.04 ± 0.029	0.631 ± 0.018	0.315 ± 0.0083	0.11 ± 0.0059	0.0638 ± 0.0015
YAMATO SYNOVIAL	1.2 ± 0.21	1.15 ± 0.13	1.23 ± 0.096	1.17 ± 0.086	0.971 ± 0.21	0.339 ± 0.031	0.318 ± 0.028	0.382 ± 0.031	1.32 ± 0.11	1.28 ± 0.16	1.32 ± 0.093	1.33 ± 0.12	0.8 ± 0.032	0.682 ± 0.077	0.285 ± 0.011	0.258 ± 0.017
MHM BONE	1.01 ± 0.018	1.04 ± 0.015	1.04 ± 0.023	1.06 ± 0.013	1.02 ± 0.015	0.635 ± 0.047	0.186 ± 0.0096	0.149 ± 0.0076	0.998 ± 0.018	1.01 ± 0.032	1.051 ± 0.01	1.031 ± 0.002	1.12 ± 0.021	1.15 ± 0.034	0.394 ± 0.034	0.183 ± 0.02
HCC1395 BREAST	0.865 ± 0.17	0.862 ± 0.071	0.943 ± 0.15	1.16 ± 0.23	0.975 ± 0.15	1.15 ± 0.066	0.818 ± 0.1	0.893 ± 0.05	0.805 ± 0.1	0.961 ± 0.16	0.938 ± 0.13	0.975 ± 0.11	0.766 ± 0.071	0.68 ± 0.17	0.578 ± 0.088	0.521 ± 0.065
SCC47 HEADNECK	1.09 ± 0.084	1.17 ± 0.07	1.14 ± 0.069	1.12 ± 0.048	0.483 ± 0.0098	0.184 ± 0.015	0.0747 ± 0.0047	0.071 ± 0.0027	1.02 ± 0.015	1.03 ± 0.13	1.1 ± 0.065	1.08 ± 0.11	1 ± 0.027	1.01 ± 0.054	0.981 ± 0.011	0.81 ± 0.094
SG28 HEADNECK	1.05 ± 0.11	1.12 ± 0.019	1 ± 0.076	1 ± 0.071	0.598 ± 0.042	0.299 ± 0.023	0.117 ± 0.019	0.125 ± 0.015	0.971 ± 0.052	1.04 ± 0.14	0.991 ± 0.044	1.01 ± 0.047	0.83 ± 0.029	0.661 ± 0.022	0.427 ± 0.012	0.317 ± 0.026
HOS BONE	1.01 ± 0.015	1.04 ± 0.039	1.08 ± 0.016	1.04 ± 0.031	0.028 ± 0.001	0.051 ± 0.0078	0.0377 ± 0.0011	0.0417 ± 0.0021	1.024 ± 0.0086	1.03 ± 0.038	1.04 ± 0.041	1.02 ± 0.016	0.908 ± 0.052	0.524 ± 0.05	0.0407 ± 0.0015	0.0373 ± 0.0015
NCIH441 LUNG	0.996 ± 0.029	0.976 ± 0.036	0.972 ± 0.076	1.03 ± 0.062	0.748 ± 0.093	0.748 ± 0.062	0.365 ± 0.04	0.324 ± 0.019	0.975 ± 0.037	1.01 ± 0.018	1.01 ± 0.05	1.06 ± 0.084	1.04 ± 0.024	0.895 ± 0.078	0.401 ± 0.031	0.319 ± 0.0068
MDAMB468 BREAST	1.038 ± 0.0097	1.05 ± 0.097	1.1 ± 0.043	1.033 ± 0.009	0.138 ± 0.013	0.164 ± 0.021	0.221 ± 0.026	0.207 ± 0.031	0.95 ± 0.0069	0.975 ± 0.067	0.984 ± 0.049	0.978 ± 0.031	0.858 ± 0.025	0.786 ± 0.11	0.151 ± 0.0051	0.0767 ± 0.0046
SG32 HEADNECK	1.35 ± 0.39	1.17 ± 0.21	1.08 ± 0.18	1.29 ± 0.14	0.257 ± 0.035	0.14 ± 0.011	0.0353 ± 0.0084	0.0353 ± 0.004	1.12 ± 0.29	1.13 ± 0.1	1.14 ± 0.091	1.12 ± 0.14	0.881 ± 0.065	0.774 ± 0.19	0.273 ± 0.099	0.222 ± 0.087
RDES SOFT TISSUE	1.13 ± 0.087	1.28 ± 0.15	1.07 ± 0.039	1.14 ± 0.19	0.459 ± 0.056	0.367 ± 0.053	0.056 ± 0.0095	0.0543 ± 0.0085	1.12 ± 0.071	0.961 ± 0.14	0.953 ± 0.08	1.1 ± 0.21	0.776 ± 0.2	1.08 ± 0.39	0.0493 ± 0.0045	0.0827 ± 0.011
93VU HEADNECK	1.14 ± 0.02	1.15 ± 0.029	1.31 ± 0.069	1.24 ± 0.085	0.648 ± 0.074	0.199 ± 0.041	0.0953 ± 0.0047	0.0957 ± 0.012	0.976 ± 0.077	1 ± 0.069	1.07 ± 0.02	1.09 ± 0.087	0.948 ± 0.033	0.945 ± 0.064	0.741 ± 0.044	0.388 ± 0.05
